pIC50: −log10 of the molar value.
Tested on: ALP in normal human articular chondrocytes (NHACs)
Experiment: Alkaline Phosphatase (ALP) activity assay (staining and quantitation) in NHACs, prevention of chondrocyte hypertrophy
Type: cell-based
Details: Chondrocyte, 288 h, human IL-1 beta 10 ng/mL, 12 days; for pIC50: Fast Blue RR staining, high content imaging, read-out: ALP in NHAC IC50; for Emax: value in parentheses, read-out: ALP in NHAC (% Efficacy)
Outline: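 Primary human articular chondrocytes plated at 7,500 cells/well in DMEM with 10% FBS alongside test compound, incubated 5 h at 37 °C, then given IL-1β (10 ng/mL final) for 12 days. Fixed cells stained for ALP with Fast Blue RR/naphthol AS-MX, Hoechst counterstain. Read by fluorescence imaging (561 nm) and/or high-content cell scoring.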

| SMILES | pIC50 | Emax [%] |
| --- | --- | --- |
| Cc1cc(NC(=O)[C@@H]2[C@@H](c3cc(C(F)(F)F)nn3C)[C@H]3O[C@@H]2C[C@@H]3O)cc(C(F)(F)F)c1 (racemic) [Example 71, rac-(1R,2R,3S,4R,5S)-5-hydroxy-3-(1-methyl-3-(trifluoromethyl)-1H-pyrazol-5-yl)-N-(3-methyl-5-(trifluoromethyl)phenyl)-7-oxabicyclo[2.2.1]heptane-2-carboxamide] | < 4.52 | 29 |
| Cn1nc(C(F)(F)F)cc1[C@H]1[C@H]2O[C@H](C[C@@H]2O)[C@@H]1C(=O)Nc1cc(C(F)(F)F)ccc1C#N (racemic) [Example 72, rac-(1R,2R,3S,4R,5S)—N-(2-cyano-5-(trifluoromethyl)phenyl)-5-hydroxy-3-(1-methyl-3-(trifluoromethyl)-1H-pyrazol-5-yl)-7-oxabicyclo[2.2.1]heptane-2-carboxamide] | 5.68 | 72 |
| Cn1nc(C(F)(F)F)cc1[C@H]1[C@H]2O[C@H](C[C@@H]2O)[C@@H]1C(=O)Nc1ccc(C(F)(F)F)c(Cl)c1 (racemic) [Example 73, rac-(1R,2R,3S,4R,5)-N-(3-chloro-4-trifluoromethyl)phenyl)-5-hydroxy-3-(1-methyl-3-(trifluoromethyl)-1H-pyrazol-5-yl)-7-oxabicyclo[2.2.1]heptane-2-carboxamide] | 5.15 | 105 |
| Cn1nc(C(F)(F)F)cc1[C@H]1[C@H]2O[C@H](C[C@@H]2O)[C@@H]1C(=O)Nc1cc(C(F)(F)F)ccn1 (racemic) [Example 74, rac-(1R,2R,3,4R,5)-5-hydroxy-3-(1-methy-3-(trifluoromethyl)-1H-pyrazol-5-yl)-N-(4-(trifluoromethyl)pyridin-2-yl-7-oxabicyclo[2.2.1]heptane-2-carboxamide] | 4.96 | 64 |
| Cn1nc(C(F)(F)F)cc1[C@H]1[C@H]2O[C@H](C[C@@H]2O)[C@@H]1C(=O)Nc1cc(C(F)(F)F)ccc1F (racemic) [Example 75, rac-(1R,2R,3S,4R,5S)—N-(2-fluoro-S-trifluoromethyl)phenyl)-5-hydroxy-3-(1-methyl-3-(trifluoromethyl)-1H-pyrazol-5-yl)-7-oxabicyclo[2.2.1]heptane-2-carboxamide] | < 4.52 | 46 |
| COc1cc([C@H]2[C@H]3O[C@H](C[C@@H]3O)[C@@H]2C(=O)Nc2cc(C(F)(F)F)ccc2F)ccn1 (racemic) [Example 76, rac-(1R,2R,3S,4R,5S)—N-(2-fluoro-5-(trifluoromethyl)phenyl)-5-hydroxy-3-(2-methoxypyridin-4-yl)-7-oxabicyclo[2.2.1]heptane-2-carboxamide] | 5.14 | 53 |
| COc1cc([C@H]2[C@H]3O[C@H](C[C@@H]3O)[C@@H]2C(=O)Nc2cc(C(F)(F)F)ccn2)ccn1 (racemic) [Example 77, rac-(1R,2R,3S,4R,5)-5-hydroxy-3-(2-methoxypyridin-4-yl)-N-(4-(trifluoromethyl)pyridin-2-yl)-7-oxabicyclo[2.2.1]heptane-2-carboxamide] | 4.82 | 76 |
| COc1cc([C@H]2[C@H]3O[C@H](C[C@@H]3O)[C@@H]2C(=O)Nc2cc(C(F)(F)F)ccc2C#N)ccn1 (racemic) [Example 78, rac-(1R,2R,3S,4R,5)-N-(2-cyano-5-trifluoromethyl)phenyl)-5-hydroxy-3-(2-methoxypyridin-4-yl)-7-oxabicyclo[2.2.1]heptane-2-carboxamide] | 7.26 | 74 |
| COc1cc([C@H]2[C@H]3O[C@H](C[C@@H]3O)[C@@H]2C(=O)Nc2ccc(C(F)(F)F)c(Cl)c2)ccn1 (racemic) [Example 79, rac-(1R,2R,3S,4R,5S)—N-(3-chloro-4-trifluoromethyl)phenyl)-5-hydroxy-3-(2-methoxypyridin-4-yl)-7-oxabicyclo[2.2.1]heptane-2-carboxamide] | 4.92 | 75 |
| O=C(Nc1cccc(C(F)(F)F)c1)[C@@H]1[C@@H](c2ccnc(F)c2)[C@H]2O[C@@H]1C[C@@H]2O (racemic) [Example 80, rac-(1R 2R,3S,4R,5S)-3-(2-fluoropyridin-4-yl)-5-hydroxy-N-(3-(trifluoromethyl)phenyl)-7-oxabicyclo[2.2.1]heptane-2-carboxamide] | 4.64 | 34 |
| O=C(Nc1cccc(C(F)(F)F)c1)[C@@H]1[C@@H](c2cncc(C(F)(F)F)c2)[C@H]2O[C@@H]1C[C@@H]2O (racemic) [Example 81, rac-(1R,2R,3S,4R,5S)-5-hydroxy-N-(3-(trifluoromethyl)phenyl)-3-(5-(trifluoromethyl)pyridin-3-yl)-7-oxabicyclo[2.2.1]heptane-2-carboxamide] | 4.72 | 59 |
| O=C(Nc1cccc(C(F)(F)F)c1)[C@@H]1[C@@H](c2ccc(C(F)(F)F)nc2)[C@H]2O[C@@H]1C[C@@H]2O (racemic) [Example 82, rac-(1R,2R,3S,4R,5S)-5-hydroxy-N-(3-(trifluoromethyl)phenyl)-3-(6-(trifluoromethyl)pyridin-3-yl)-7-oxabicyclo[2.2.1]heptane-2-carboxamide] | 5.34 | 78 |
| O=C(Nc1cccc(C(F)(F)F)c1)[C@@H]1[C@@H](c2cnc(C(F)(F)F)nc2)[C@H]2O[C@@H]1C[C@@H]2O (racemic) [Example 83, rac-(1R,2R,3S,4R,5S)-5-hydroxy-N-(3-(trifluoromethyl)phenyl)-3-(2-(trifluoromethyl)pyrimidin-5-yl)-7-oxabicyclo[2.2.1]heptane-2-carboxamide] | 4.62 | 43 |
| CC(C)n1cc([C@H]2[C@H]3O[C@H](C[C@@H]3O)[C@@H]2C(=O)Nc2cc(C(F)(F)F)ccc2C#N)c(C(F)(F)F)n1 (racemic) [Example 84, rac-(1R,2R,3S,4R,5S)—N-(2-cyano-5-(trifluoromethyl)phenyl)-5-hydroxy-3-(1-isopropyl-3-(trifluoromethyl)-1H-pyrazol-4-yl)-7-oxabicyclo[2.2.1]heptane-2-carboxamide] | 6.54 | 86 |
| CC(C)n1cc([C@H]2[C@H]3O[C@H](C[C@@H]3O)[C@@H]2C(=O)Nc2cc(C(F)(F)F)ccc2F)c(C(F)(F)F)n1 (racemic) [Example 85, rac-(1R,2R,3S,4R,5S)—N-(2-fluoro-5-(trifluoromethyl)phenyl)-5-hydroxy-3-(1-isopropyl-3-(trifluoromethyl-1H-pyrazol-4-yl-7-oxabicyclo[2.2.1]heptane-2-carboxamide] | < 4.52 | 44 |
| CC(C)n1cc([C@H]2[C@H]3O[C@H](C[C@@H]3O)[C@@H]2C(=O)Nc2cc(C(F)(F)F)ccn2)c(C(F)(F)F)n1 (racemic) [Example 86, rac-(1R,2R,3S,4R,5S)-5-hydroxy-3-(1-isopropyl-3-(trifluoromethyl)-1H-pyrazol-4-yl)-N-(4-(trifluoromethyl)pyridin-2-yl)-7-oxabicyclo[2.2.1]heptane-2-carboxamide] | 4.96 | 83 |
| CC(C)n1cc([C@H]2[C@H]3O[C@H](C[C@@H]3O)[C@@H]2C(=O)Nc2ccc(C(F)(F)F)c(Cl)c2)c(C(F)(F)F)n1 (racemic) [Example 87, rac-(1R,2R,3S,4R,5S)—N-(3-chloro-4-trifluoromethyl)phenyl)-5-hydroxy-3-(1-isopropyl-3-(trifluoromethyl)-1H-pyrazol-4-yl)-7-oxabicyclo[2.2.1]heptane-2-carboxamide] | 4.85 | 64 |
